Consider 21 molecules from patent publication US20010039287A1, “AROMATIC SULFONE HYDROXAMIC ACID METALLOPROTEASE INHIBITOR” (priority 1997, published 2001).

Holding throughout (test): biochemical
One assay has as its target T1, recombinant human MMP-2 (Homo sapiens, UniProt P08253).
T1 sequence (P08253 110-660): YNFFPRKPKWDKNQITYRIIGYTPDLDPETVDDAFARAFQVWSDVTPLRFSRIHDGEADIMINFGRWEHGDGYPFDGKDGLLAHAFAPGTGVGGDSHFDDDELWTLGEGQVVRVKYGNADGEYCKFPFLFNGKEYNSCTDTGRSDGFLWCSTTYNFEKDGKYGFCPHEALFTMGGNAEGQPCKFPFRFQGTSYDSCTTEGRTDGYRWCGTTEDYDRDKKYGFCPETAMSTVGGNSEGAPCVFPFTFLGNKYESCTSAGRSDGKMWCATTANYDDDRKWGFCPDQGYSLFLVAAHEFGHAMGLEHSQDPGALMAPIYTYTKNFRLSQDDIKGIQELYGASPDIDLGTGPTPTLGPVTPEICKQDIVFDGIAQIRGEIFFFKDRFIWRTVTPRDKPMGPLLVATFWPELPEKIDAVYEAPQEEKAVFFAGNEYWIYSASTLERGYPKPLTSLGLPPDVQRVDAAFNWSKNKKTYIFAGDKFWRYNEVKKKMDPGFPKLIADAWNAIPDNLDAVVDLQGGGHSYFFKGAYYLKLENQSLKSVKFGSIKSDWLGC
As to conditions: Inhibition Table B; read-out: MMP-2 IC50.

The target in the next assay is recombinant human MMP-13 (Homo sapiens, UniProt P45452). As to conditions: Inhibition Table B; read-out: MMP-13 IC50.
In the next assay the target is recombinant human MMP-9 (Homo sapiens, UniProt P14780). As to conditions: Inhibition Table B; read-out: MMP-9 IC50.
Sequence of recombinant human MMP-9 (P14780 107-707 limits assumed): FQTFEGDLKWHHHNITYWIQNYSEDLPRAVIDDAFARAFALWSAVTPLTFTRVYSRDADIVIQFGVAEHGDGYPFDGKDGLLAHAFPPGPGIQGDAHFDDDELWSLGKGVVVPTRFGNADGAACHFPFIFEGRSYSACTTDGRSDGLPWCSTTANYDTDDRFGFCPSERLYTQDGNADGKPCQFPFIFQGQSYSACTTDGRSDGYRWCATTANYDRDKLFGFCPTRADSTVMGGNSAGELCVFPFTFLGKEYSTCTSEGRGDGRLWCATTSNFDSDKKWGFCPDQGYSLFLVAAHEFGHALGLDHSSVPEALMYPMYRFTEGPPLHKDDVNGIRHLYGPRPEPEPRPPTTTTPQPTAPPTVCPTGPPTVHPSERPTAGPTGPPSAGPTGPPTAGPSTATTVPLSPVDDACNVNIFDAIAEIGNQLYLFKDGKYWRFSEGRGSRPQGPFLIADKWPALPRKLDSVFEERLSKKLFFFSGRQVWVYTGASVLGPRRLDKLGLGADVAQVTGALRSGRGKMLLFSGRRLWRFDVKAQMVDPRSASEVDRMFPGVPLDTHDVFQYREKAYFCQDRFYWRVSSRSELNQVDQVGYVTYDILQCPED
A further assay has as its target T2, recombinant human MMP-1 (Homo sapiens, UniProt P03956).
T2 construct: made in house; host or cells: transfected HT-1080 cells (provided by Dr. Harold Welgus, Washington University)
T2 sequence (P03956 100-469): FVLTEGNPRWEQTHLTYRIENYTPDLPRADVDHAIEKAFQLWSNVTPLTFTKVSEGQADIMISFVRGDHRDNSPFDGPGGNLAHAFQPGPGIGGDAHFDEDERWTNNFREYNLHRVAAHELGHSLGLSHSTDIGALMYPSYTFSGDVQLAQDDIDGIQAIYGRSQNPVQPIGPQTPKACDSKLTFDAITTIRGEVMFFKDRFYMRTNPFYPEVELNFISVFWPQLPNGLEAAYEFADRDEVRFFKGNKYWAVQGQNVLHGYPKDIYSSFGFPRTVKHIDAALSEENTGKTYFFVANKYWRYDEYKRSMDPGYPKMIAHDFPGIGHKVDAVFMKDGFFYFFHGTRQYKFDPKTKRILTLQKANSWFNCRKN
As to conditions: Inhibition Table B; read-out: MMP-1 IC50.

Counter-ions that a name gives are not always drawn.

On to `COCCN1CCC(C(=O)NO)(S(=O)(=O)c2ccc(Oc3ccccc3)cc2)CC1` [Example 30], for which the IC50 (commonly the point on the concentration scale where inhibition reaches its midpoint) came out at 0.1 nM on recombinant human MMP-2, 0.1 nM at recombinant human MMP-13, 0.3 nM on recombinant human MMP-9 and 350 nM at recombinant human MMP-1.
Take `C#CCN1CCC(C(=O)NO)(S(=O)(=O)c2ccc(Oc3ccc(OC)c(OC)c3)cc2)CC1` [Example 38, 4-[[4-(3,4-dimethoxyphenoxy)phenyl]sulfonyl]-N-hydroxy-1-(2-propynyl)-4-piperidinecarboxamide, Monohydrochloride]: the IC50 on recombinant human MMP-2 is 20 nM; on recombinant human MMP-13, 22 nM; on recombinant human MMP-9, 135 nM; on recombinant human MMP-1 it was greater than 10000 nM.
`CS(=O)(=O)N1CCC(C(=O)NO)(S(=O)(=O)c2ccc(Oc3ccc4c(c3)OCO4)cc2)CC1` [Example 42, 4-[[4-(1,3-benzodioxol-5-yloxy)phenyl]sulfonyl]-N-hydroxy-1-(methylsulfonyl)-4-piperidinecarboxamide]: the IC50 came to 0.2 nM at recombinant human MMP-2, 0.4 nM at recombinant human MMP-13, 1.3 nM at recombinant human MMP-9 and 2200 nM on recombinant human MMP-1.
In the case of `O=C(NO)C1(S(=O)(=O)c2ccc(N3CCC(Oc4ccc5c(c4)OCO5)CC3)cc2)CCOCC1` [Example 63, 4-[[4-[4-(1,3-Benzodioxol-5-yloxy)-1-piperidinyl]phenyl]sulfonyl]-tetrahydro-N-hydroxy-2H-pyran-4-carboxamide, Monohydrochloride], the IC50 at recombinant human MMP-2 is 18.1 nM; at recombinant human MMP-13, 1.5 nM; at recombinant human MMP-9 it was 530 nM; at recombinant human MMP-1 it was greater than 10000 nM.
The like results for `COc1ccc(Sc2ccc(S(=O)(=O)C3(C(=O)NO)CCOCC3)cc2)cc1` [Example 65, Tetrahydro-N-hydroxy-4-[[4-(4-methoxyphenylthio)phenyl]-sulfonyl]-2H-pyran-4-carboxamide] were, in that order, 0.6 nM, 0.7 nM, 4.4 nM and 8000 nM.
The like results for `O=C(NO)C1(S(=O)(=O)c2ccc(NCc3ccccc3)cc2)CCOCC1` [Example 68, tetrahydro-N-hydroxy-4-[[4-[(4-phenylmethyl)amino]phenyl]-sulfonyl]-2H-pyran-4-carboxamide, Monohydrochloride] were, in that order, 5.3 nM, 6 nM, 130 nM and greater than 10000 nM.
As for `O=C(NO)C1(S(=O)(=O)c2ccc(Oc3cc(F)cc(F)c3)cc2)CCOCC1` [Example 70, 4-[[4-(3,5-difluorophenoxy)phenyl]sulfonyl]tetrahydro-N-hydroxy-2H-pyran-4-carboxamide], the IC50 worked out at 0.2 nM at recombinant human MMP-2, 0.8 nM on recombinant human MMP-13, 7.3 nM on recombinant human MMP-9 and 1500 nM at recombinant human MMP-1.
The like results for `Cc1ccc(Oc2ccc(S(=O)(=O)C3(C(=O)NO)CN(C)CN(C)C3)cc2)cc1C` [Example 78, 5-[4-(3,4-dimethylphenoxy)phenyl]sulfonyl-N^5-hydroxy-1,3-dimethylhexahydro-5-pyrimidinecarboxamide, Dihydrochloride] were, in that order, 6 nM, 10 nM, 50 nM and greater than 10000 nM.
With `Cc1cc(Oc2ccc(S(=O)(=O)C3(C(=O)NO)CCN(CC(=O)O)CC3)cc2)ccc1Cl` [Example 80, 4-[[4-(4-chloro-3-methylphenoxy)phenyl]sulfonyl]-4-(hydroxyamino)carbonyl]-1-piperidineacetic Acid, Monohydrochloride], the IC50 at recombinant human MMP-2 turned out to be 0.1 nM; on recombinant human MMP-13, 0.2 nM; on recombinant human MMP-9 it was 1.8 nM; on recombinant human MMP-1, 3000 nM.
Consider `Cc1cc(Oc2ccc(S(=O)(=O)C3(C(=O)NO)CCNCC3)cc2)ccc1F` [Example 83, 4-[[4-(4-fluoro-3-methylphenoxy)phenyl]sulfonyl]-N-hydroxy-4-piperidine Carboxamide, Monohydrochloride], for which the IC50 on recombinant human MMP-2 stood at 1.2 nM; on recombinant human MMP-13, 1.5 nM; at recombinant human MMP-9, 5 nM; on recombinant human MMP-1, 8000 nM.
Regarding `C#CCN1CCC(C(=O)NO)(S(=O)(=O)c2ccc(Oc3ccc(Cl)cc3)cc2)CC1` [Example 85, 4-[[4-(4-chlorophenoxy)-phenyl]sulfonyl]-N-hydroxy-1-(2-propynyl)-4-piperidinecarboxamide, Monohydrochloride], the IC50 was less than 0.1 nM at recombinant human MMP-2, less than 0.1 nM at recombinant human MMP-13, 0.4 nM at recombinant human MMP-9 and 500 nM at recombinant human MMP-1.
Turning to `O=C(O)CN1CCC(C(=O)NO)(S(=O)(=O)c2ccc(Sc3ccccc3)cc2)CC1` [Example 87, 4-[(hydroxyamino)-carbonyl]-4-[[4-(phenylthio)phenyl]-sulfonyl]-1-piperidineacetic Acid, Monohydrochloride], the IC50 worked out at 0.8 nM at recombinant human MMP-2, 0.35 nM on recombinant human MMP-13, 13.9 nM on recombinant human MMP-9 and 7200 nM on recombinant human MMP-1.
For the molecule `O=C(O)CN1CCC(C(=O)NO)(S(=O)(=O)c2ccc(Oc3ccc(Cl)cc3)cc2)CC1` [Example 88, 4-[[4-(4-chlorophenoxy)-phenyl]sulfonyl]-4-[(hydroxyamino)-carbonyl]-1-piperidineacetic Acid, Monohydrochloride], the IC50 at recombinant human MMP-2 turned out to be 0.2 nM; on recombinant human MMP-13 it was 0.2 nM; at recombinant human MMP-9, 0.5 nM; on recombinant human MMP-1, 1100 nM.
For the molecule `O=C(NO)C1(S(=O)(=O)c2ccc(Oc3ccc(Cl)cc3)cc2)CCN(CCN2CCOCC2)CC1` [Example 89, 4-[[4-(4-chlorophenoxy)-phenyl]sulfonyl]-N-hydroxy-1-[2-(4-morpholinyl)ethyl]-4-piperidine-carboxamide, Dihydrochloride], the IC50 was 0.15 nM on recombinant human MMP-2, 0.25 nM on recombinant human MMP-13, 0.4 nM on recombinant human MMP-9 and 1200 nM at recombinant human MMP-1.
On to `O=C(NO)C1(S(=O)(=O)c2ccc(-c3ccc(Cl)cc3)cc2)CCNCC1` [Example 91, 4-[(4′-chloro[1,1′-biphenyl]-4-yl)sulfonyl]-N-hydroxy-4-piperidinecarboxamide, Monohydrochloride], for which the IC50 on recombinant human MMP-2 came out at 1.5 nM; at recombinant human MMP-13 it was 2.1 nM; on recombinant human MMP-9, 40 nM; at recombinant human MMP-1 it was 1800 nM.
Turning to `Cc1ccc(Oc2ccc(S(=O)(=O)C3(C(=O)NO)CCOCC3)cc2)cc1C` [Example 96, 4-[[4-(3,4-dimethyl-phenoxy)phenyl]ssulfonyl]tetrahydro-N-hydroxy-2H-pyran-4-carboxamide], the IC50 at recombinant human MMP-2 stood at 0.2 nM; on recombinant human MMP-13 it was 0.3 nM; at recombinant human MMP-9 it was 1.3 nM; at recombinant human MMP-1 it was 5000 nM.
The corresponding values for `O=C(O)CCc1ccc(Oc2ccc(S(=O)(=O)C3(C(=O)NO)CCOCC3)cc2)cc1` [Example 105, 4-[4-[[tetrahydro-4-[(hydroxyamino)carbonyl]-2H-pyran-4-yl]sulfonyl]phenoxy]benzenepropanoic Acid] are 3500 nM, 0.85 nM, 114 nM and greater than 10000 nM.
The like results for `O=C(NO)C1(S(=O)(=O)c2ccc(Oc3ccccc3)cc2)CCS(=O)(=O)CC1` [Example 110] were, in that order, 0.4 nM, 0.5 nM, 10 nM and 2700 nM.
As for `O=C(NO)C1(S(=O)(=O)c2ccc(Sc3ccc(O)cc3)cc2)CCSCC1` [Example 114], the IC50 at recombinant human MMP-2 was 0.65 nM; on recombinant human MMP-13 it was 0.4 nM; at recombinant human MMP-9, 31.6 nM; on recombinant human MMP-1, 3000 nM.
The like results for `NCCc1ccc(Oc2ccc(S(=O)(=O)C3(C(=O)NO)CCSCC3)cc2)cc1` [Example 116, tetrahydro-N-hydroxy-4-[[4-[4-tyramine)phenoxy]phenyl] Sulfonyl 2H-thiopyran-4-carboxamide] were, in that order, 2 nM, 5.5 nM, 15.3 nM and 2350 nM.
Regarding `O=C(NO)C1(S(=O)(=O)c2ccc(Sc3ccncc3)cc2)CCSCC1` [Example 119, tetrahydro-N-hydroxy-4-[[4-(4-pyridinylthio)-phenyl]sulfonyl]-2H-thiopyran-4-carboxamide, Monohydrochloride], the IC50 at recombinant human MMP-2 is 1.5 nM; at recombinant human MMP-13, 1.7 nM; at recombinant human MMP-9, 30 nM; on recombinant human MMP-1, greater than 10000 nM.
